Data: ChEMBL document CHEMBL3046342, “Synthesis of steroidal thiazolidinones as antibacterial agents based on the in vitro and quantum chemistry calculation” (2013)
Values after ≈ are worked out from the molar mass of the structure shown.

Key:
Format in all cases: functional
Streptococcus pyogenes [1] = assay: Antibacterial activity against Streptococcus pyogenes ATCC 12384 assessed as growth inhibition at 10 to 100 ug/uL after 18 hr by disk diffusion method
Salmonella typhimurium [2] = assay: Antibacterial activity against Salmonella enterica subsp. enterica serovar Typhimurium ATCC 13311 assessed as growth inhibition at 10 to 100 ug/uL after 18 hr by disk diffusion method
Escherichia coli [3] = assay: Antibacterial activity against Escherichia coli ATCC 49696 assessed as growth inhibition at 10 to 100 ug/uL after 18 hr by disk diffusion method
Staphylococcus aureus [4] = assay: Antibacterial activity against Staphylococcus aureus ATCC 13150 assessed as growth inhibition at 10 to 100 ug/uL after 18 hr by disk diffusion method
Escherichia coli [5] = assay: Antibacterial activity against Escherichia coli ATCC 49696 assessed as growth inhibition after 18 hr by microbroth dilution method; settings: ATCC 49696, 18 h
Salmonella typhimurium [6] = assay: Antibacterial activity against Salmonella enterica subsp. enterica serovar Typhimurium ATCC 13311 assessed as growth inhibition after 18 hr by microbroth dilution method; settings: ATCC 13311, 18 h
Streptococcus pyogenes [7] = assay: Antibacterial activity against Streptococcus pyogenes ATCC 12384 assessed as growth inhibition after 18 hr by microbroth dilution method; settings: ATCC 12384, 18 h
Staphylococcus aureus [8] = assay: Antibacterial activity against Staphylococcus aureus ATCC 13150 assessed as growth inhibition after 18 hr by microbroth dilution method; settings: ATCC 13150, 18 h
Salmonella typhimurium [9] = assay: Antibacterial activity against Salmonella enterica subsp. enterica serovar Typhimurium ATCC 13311 assessed as growth inhibition at 30 ug/disk after 18 hr by disk diffusion method; settings: ATCC 13311, 18 h, read-out: IZ
Staphylococcus aureus [10] = assay: Antibacterial activity against Staphylococcus aureus ATCC 13150 assessed as growth inhibition at 30 ug/disk after 18 hr by disk diffusion method; settings: ATCC 13150, 18 h, read-out: IZ
Escherichia coli [11] = assay: Antibacterial activity against Escherichia coli ATCC 49696 assessed as growth inhibition at 30 ug/disk after 18 hr by disk diffusion method; settings: ATCC 49696, 18 h, read-out: IZ
Streptococcus pyogenes [12] = assay: Antibacterial activity against Streptococcus pyogenes ATCC 12384 assessed as growth inhibition at 30 ug/disk after 18 hr by disk diffusion method; settings: ATCC 12384, 18 h, read-out: IZ

MIC (Escherichia coli [5]) [µg/mL]	MIC (Salmonella typhimurium [6]) [µg/mL]	MIC (Streptococcus pyogenes [7]) [µg/mL]	MIC (Staphylococcus aureus [8]) [µg/mL]	SMILES	inhibition zone (IZ) (Streptococcus pyogenes [1]) [mm]	inhibition zone (IZ) (Salmonella typhimurium [2]) [mm]	inhibition zone (IZ) (Escherichia coli [3]) [mm]	inhibition zone (IZ) (Staphylococcus aureus [4]) [mm]	zone of inhibition at 30 µg/disc (Salmonella typhimurium [9]) [mm]	zone of inhibition at 30 µg/disc (Staphylococcus aureus [10]) [mm]	zone of inhibition at 30 µg/disc (Escherichia coli [11]) [mm]	zone of inhibition at 30 µg/disc (Streptococcus pyogenes [12]) [mm]
				CC(=O)O[C@H]1CC[C@@]2(C)C(C1)/C(=N/NC(=S)NC1CCCCC1)C[C@H]1[C@@H]3CC[C@H]([C@H](C)CCCC(C)C)[C@@]3(C)CC[C@@H]12 (some centres undefined)	12.2	10.6	13.6	11.6				
				CC(C)CCC[C@@H](C)[C@H]1CC[C@H]2[C@@H]3C/C(=N\NC(=S)NC4CCCCC4)C4C[C@@H](Cl)CC[C@]4(C)[C@H]3CC[C@]12C (some centres undefined)	10.5	11.5	11.4	11.2				
				CC(C)CCC[C@@H](C)[C@H]1CC[C@H]2[C@@H]3C/C(=N\NC(=S)NC4CCCCC4)C4CCCC[C@]4(C)[C@H]3CC[C@]12C (some centres undefined)	9.8	10.6	11.6	9.6				
32 (≈ 50 µM)	32 (≈ 50 µM)	64 (≈ 100 µM)	32 (≈ 50 µM)	CC(=O)O[C@H]1CC[C@@]2(C)C(C1)/C(=N/N=C1\SCC(=O)N1C1CCCCC1)C[C@H]1[C@@H]3CC[C@H]([C@H](C)CCCC(C)C)[C@@]3(C)CC[C@@H]12 (some centres undefined)	21.6	19.2	20.8	18.8				
32 (≈ 51.9 µM)	32 (≈ 51.9 µM)	32 (≈ 51.9 µM)	64 (≈ 104 µM)	CC(C)CCC[C@@H](C)[C@H]1CC[C@H]2[C@@H]3C/C(=N\N=C4/SCC(=O)N4C4CCCCC4)C4C[C@@H](Cl)CC[C@]4(C)[C@H]3CC[C@]12C (some centres undefined)	21.7	19.6	22.8	20.6				
128 (≈ 220 µM)	512 (≈ 880 µM)	128 (≈ 220 µM)	64 (≈ 110 µM)	CC(C)CCC[C@@H](C)[C@H]1CC[C@H]2[C@@H]3C/C(=N\N=C4/SCC(=O)N4C4CCCCC4)C4CCCC[C@]4(C)[C@H]3CC[C@]12C (some centres undefined)	14.2	13.2	14	13.8				

SMILES	MIC (Escherichia coli [5]) [µg/mL]	MIC (Salmonella typhimurium [6]) [µg/mL]	MIC (Streptococcus pyogenes [7]) [µg/mL]	MIC (Staphylococcus aureus [8]) [µg/mL]	inhibition zone (IZ) (Streptococcus pyogenes [1]) [mm]	inhibition zone (IZ) (Salmonella typhimurium [2]) [mm]	inhibition zone (IZ) (Escherichia coli [3]) [mm]	inhibition zone (IZ) (Staphylococcus aureus [4]) [mm]	zone of inhibition at 30 µg/disc (Salmonella typhimurium [9]) [mm]	zone of inhibition at 30 µg/disc (Staphylococcus aureus [10]) [mm]	zone of inhibition at 30 µg/disc (Escherichia coli [11]) [mm]	zone of inhibition at 30 µg/disc (Streptococcus pyogenes [12]) [mm]
CC1(C)S[C@@H]2[C@H](NC(=O)[C@H](N)c3ccc(O)cc3)C(=O)N2[C@H]1C(=O)O [AMOXICILLIN]	32 (≈ 87.6 µM)	32 (≈ 87.6 µM)	32 (≈ 87.6 µM)	32 (≈ 87.6 µM)					17.2	17	20	18.2
